Experimental data taken from PMC11788587, “Validating Low‐Dose Iohexol as a Marker for Glomerular Filtration Rate by In Vitro and In Vivo Studies” (Clinical and Translational Science, 2025).

Molecular target: T1, hMATE1 (Homo sapiens, UniProt Q96FL8)
T1 construct: expressed in transfected cells; host or cells: HEK-293 (293) cells, pEBTetD plasmid, doxycycline-induced
T1 sequence (Q96FL8 1-570): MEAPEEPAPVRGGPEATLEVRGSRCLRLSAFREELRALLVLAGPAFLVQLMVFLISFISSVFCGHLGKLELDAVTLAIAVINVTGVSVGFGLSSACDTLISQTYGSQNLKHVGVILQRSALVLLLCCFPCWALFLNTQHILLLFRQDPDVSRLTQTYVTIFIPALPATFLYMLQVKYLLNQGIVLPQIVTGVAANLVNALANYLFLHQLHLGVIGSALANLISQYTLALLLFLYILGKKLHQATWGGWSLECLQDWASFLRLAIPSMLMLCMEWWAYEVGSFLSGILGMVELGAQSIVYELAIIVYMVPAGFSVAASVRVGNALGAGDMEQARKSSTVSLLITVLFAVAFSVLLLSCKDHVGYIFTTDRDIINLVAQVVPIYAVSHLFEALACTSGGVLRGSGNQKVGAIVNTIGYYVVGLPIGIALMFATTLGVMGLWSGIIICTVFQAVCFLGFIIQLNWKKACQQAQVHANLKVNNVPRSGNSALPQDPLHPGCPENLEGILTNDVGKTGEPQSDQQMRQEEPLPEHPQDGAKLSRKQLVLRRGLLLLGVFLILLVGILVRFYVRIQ
Assay: Substrate assessment: iohexol uptake in 293 cells expressing hMATE1 vs control
Assay type: in vitro ADME
Details: 10 μM iohexol, median (95% CI)
Source text: We characterized the inhibitory potential of iohexol on major drug transporters recommended by regulatory agencies, which were previously assessed in a clinical transporter phenotyping cocktail study. These transporters include hOAT1, hOAT3, hOCT1, hOCT2, hMATE1, hMATE2K, human organic anion transporter polypeptides (hOATP)1B1, hOATP1B3, and human multidrug resistance protein (hMDR)1. Additionally, we investigated whether iohexol is a substrate for any of the renal transporters among these, including hOAT1/3, hOCT1/2, and hMATE1/2K. Cell‐based uptake assays were used to assess the activities of hOAT1/3, hOCT1/2, hMATE1/2K, and hOATP1B1/1B3. Inside‐out membrane vesicle uptake assays were used to evaluate the activity of hMDR1.
For substrate assessments, iohexol was incubated with stably transfected HEK‐293 cells expressing one of the following transporters: hOAT1, hOAT3, hOCT1, hOCT2, hMATE1, or hMATE2K, as well as with control cells lacking transporter expression. Stably transfected cell lines containing pEBTetD plasmids with wild‐type human transporter cDNAs were generated as previously described. Transporter expression was induced by adding 1 μg/mL doxycycline to the growth medium for at least 20 h. Iohexol would be considered a substrate for these transporters if: (1) the ratio of iohexol uptake in cells expressing the transporter to that in control cells was ≥ 2, and (2) a known inhibitor of the transporter reduced iohexol uptake to ≤ 50% at concentrations ≥ 10 times its inhibition constant or half‐maximal inhibitory concentration.
Uptake assays were performed using stably transfected 293 cells, with or without the expression of one of the following transporters: hOAT1, hOAT3, hOCT1, hOCT2, hMATE1, or hMATE2K, as previously described.^1
For the substrate assessment, cells were incubated with 10 µM iohexol for 10 minutes and 30 minutes for each transporter. Inhibition assays were performed using specific standard substrates for each transporter: 10 µM para-aminohippuric acid (PAH) for hOAT1, 3 µM estrone-3-sulfate (E3S) for hOAT3, 50 µM metformin for hOCT1, 5 µM metformin for hOCT2, and 3 µM 1-methyl-4-phenylpyridinium (MPP+) for hMATE1 and hMATE2K. […]
R version 4.2.1 (R Foundation for Statistical Computing, Vienna, Austria) was used for statistical evaluations and data visualization. The data analysis approach for the in vitro study was detailed by Hsin CH et al..^1 In brief, for transport assays, the initial uptake rate was calculated by normalizing the substrate concentration to both the protein concentration and the incubation time for each dish or well. The transporter-mediated uptake rate (net uptake) was determined by performing an element-wise subtraction of uptake rates from different conditions. […]

With CC(=O)N(CC(O)CO)c1c(I)c(C(=O)NCC(O)CO)c(I)c(C(=O)NCC(O)CO)c1I (stereo not shown) [iohexol] the “Differences in intracellular accumulation (expression on minus off)” value (10 minutes) was 0.36 (-1.2 to 1.7) pmol/mg protein, the “Uptake ratio (transporter-expressing vs non-expressing cells)” value (10 minutes) was 1.1 (0.84 to 1.2) and the “Differences in intracellular accumulation (expression on minus off)” value (30 minutes) was -0.67 (-1.6 to 0.61) pmol/mg protein. For the same compound, the “Uptake ratio (transporter-expressing vs non-expressing cells)” value (30 minutes) was 0.92 (0.78 to 1.1).
